Laboratory results published in US20130345205A1, “SUBSTITUTED BICYCLIC ARALKYL PYRAZOLE LACTAM ANALOGS AS ALLOSTERIC MODULATORS OF MGLUR5 RECEPTORS” (Vanderbilt University, priority 2012, published 2013).

Legend:
[1] = target: human mGluR5 (Homo sapiens, UniProt P41594); assay: Cell-based functional Ca2+ mobilization assay (FDSS), potentiation of glutamate EC20 response; details: H10H cell-line (HEK, recombinant human mGluR5); for Emax: glutamate EC20, maximum average response at a single concentration, percent of maximal glutamate response; for EC50: positive allosteric modulation in presence of glutamate EC20, concentration in mol/L
Description: Human mGluR5a cDNA in pCMV6-XL6 mammalian expression plasmid was purchased from OriGene Technologies, Inc. (catalogue number SC326357) and subcloned into pcDNA3.1(−). Human embryonic kidney (HEK) 293A cells were then transfected with human mGluR5a pcDNA3.1(−) using LipofectAmine2000 (Invitrogen) and monoclones were selected and tested for functional response using a Ca^2+ mobilization assay. Monoclones were named for the species (“H” for human) plus the location on the plate (e.g. “10H”).
HEK cells transfected with the human mGluR5a receptor (H10H or H12H cell line) were plated at 15,000 cells/well in clear-bottomed poly-D-lysine-coated assay plates (BD Falcon) in glutamate-glutamine-free growth medium and incubated overnight at 37° C. and 5% CO2. Cell-lines used were either the H10H or H12H cell-lines expressing the human mGluR5 receptor. The following day, the growth medium was removed and the cells were washed with assay buffer containing 1× Hank's balanced salt solution (Invitrogen, Carlsbad, Calif.), 20 mM HEPES, 2.5 mM probenecid, pH 7.4 and left with 20 μL of this reagent. Following this step, the cells were loaded with calcium indicator dye, fluo-4 AM, to a final concentration of 2 μM and incubated for 40-45 min at 37° C. The dye solution was removed and replaced with assay buffer. Cell plates were held for 10-15 min at room temperature and were then loaded into the Functional Drug Screening System 6000 (FDSS 6000, Hamamatsu, Japan).
After establishment of a fluorescence baseline for about 3 seconds, the compounds of the present invention were added to the cells, and the response in cells was measured. 2.3 minutes later an EC20 concentration of the mGluR5 receptor agonist glutamate was added to the cells, and the response of the cells was measured for about 1.7 minutes. All test compounds were dissolved and diluted to a concentration of 10 mM in 100% DMSO and then serially diluted into assay buffer for a 2× stock solution in 0.6% DMSO; stock compounds were then added to the assay for a final DMSO concentration of 0.3% after the first addition to the assay well. Calcium fluorescence measures were recorded as fold over basal fluorescence; raw data was then normalized to the maximal response to glutamate. Potentiation of the agonist response of the mGluR5 receptor in the present invention was observed as an increase in response to submaximal concentrations of glutamate in the presence of compound compared to the response to glutamate in the absence of compound.
The concentration-response curves of compounds of the present invention, obtained in the presence of EC20 of mGluR5 receptor agonist glutamate to determine positive allosteric modulation, were generated using Microsoft Excel with IDBS XLFit add-ins. The raw data file containing all time points was used as the data source in the analysis template. This was saved by the FDSS as a tab-delimited text file. Data were normalized using a static ratio function (F/F0) for each measurement of the total 350 values per well divided by each well's initial value. Data was then reduced as to peak amplitudes (Max-Initial Min) using a time range that starts approximately 1 second after the glutamate EC20 addition and continues for approximately 40 seconds. This is sufficient time to capture the peak amplitude of the cellular Calcium response. Individual amplitudes were expressed as % EMax by multiplying each amplitude by 100 and then dividing the product by the mean of the amplitudes derived from the glutamate ECMax-treated wells. pEC50 values for test compounds were generated by fitting the normalized values versus the log of the test compound concentration (in mol/L) using a 4 parameter logistic equation where none of the parameters were fixed. Each of the three values collected at each concentration of test compound were weighted evenly. Individual values falling outside the 95% prediction limits of the curve fit were automatically excluded from the fit. […]

Chain of human mGluR5 (P41594 21-1180 isoform P41594-2 limits assumed): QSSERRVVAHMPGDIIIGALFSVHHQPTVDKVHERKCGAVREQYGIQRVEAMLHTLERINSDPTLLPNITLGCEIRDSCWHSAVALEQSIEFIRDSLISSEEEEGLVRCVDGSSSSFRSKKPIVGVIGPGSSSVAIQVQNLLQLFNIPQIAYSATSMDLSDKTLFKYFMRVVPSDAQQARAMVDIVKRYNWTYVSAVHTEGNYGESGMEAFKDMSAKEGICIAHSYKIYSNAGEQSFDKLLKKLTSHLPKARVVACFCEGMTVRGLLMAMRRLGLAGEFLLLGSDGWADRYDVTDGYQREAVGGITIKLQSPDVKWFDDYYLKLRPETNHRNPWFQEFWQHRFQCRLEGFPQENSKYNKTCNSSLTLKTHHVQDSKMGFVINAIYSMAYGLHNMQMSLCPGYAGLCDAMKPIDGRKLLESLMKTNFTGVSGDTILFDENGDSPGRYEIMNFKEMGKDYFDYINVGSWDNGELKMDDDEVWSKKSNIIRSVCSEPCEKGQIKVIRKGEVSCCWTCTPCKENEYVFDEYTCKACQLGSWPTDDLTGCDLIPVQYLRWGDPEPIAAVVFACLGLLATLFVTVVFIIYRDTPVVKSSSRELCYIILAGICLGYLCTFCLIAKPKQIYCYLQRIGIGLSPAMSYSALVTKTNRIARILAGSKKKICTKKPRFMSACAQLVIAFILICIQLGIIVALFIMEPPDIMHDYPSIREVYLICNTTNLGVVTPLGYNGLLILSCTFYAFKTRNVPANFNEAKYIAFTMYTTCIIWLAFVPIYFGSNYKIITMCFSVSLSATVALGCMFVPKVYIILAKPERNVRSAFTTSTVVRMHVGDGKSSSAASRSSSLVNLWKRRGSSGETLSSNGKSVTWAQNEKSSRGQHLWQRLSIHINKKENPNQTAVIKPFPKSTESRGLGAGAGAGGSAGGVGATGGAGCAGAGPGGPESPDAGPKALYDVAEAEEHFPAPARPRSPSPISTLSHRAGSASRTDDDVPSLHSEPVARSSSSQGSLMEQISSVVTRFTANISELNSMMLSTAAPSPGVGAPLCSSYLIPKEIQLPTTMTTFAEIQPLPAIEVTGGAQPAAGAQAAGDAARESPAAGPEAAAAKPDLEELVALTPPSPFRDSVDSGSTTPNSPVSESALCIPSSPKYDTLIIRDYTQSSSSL

SMILES	Emax [1]	EC50 [1]	melting point
CC1CN(Cc2ccccc2)C(=O)c2cc(COc3cccc(C#N)c3)nn21 (single isomer, unassigned) [Example B53]	65%	525 nM	–
Cc1cccc(CN2C(=O)c3cc(COc4ccccc4)nn3C[C@H]2C)n1 [Example B86]	71.5%	302 nM	107.6 °C
COc1ccc(CN2CCn3nc(COc4cc(C)nc(C)c4)cc3C2=O)cc1 [Example B35]	17%	> 31600 nM	164.8 °C
O=C1c2cc(COc3ccccc3)nn2CCN1Cc1ncc(F)cn1 [Example B70]	66%	398 nM	–
Cc1cc(CN2CCn3nc(COc4ccccc4)cc3C2=O)no1 [Example B89]	66%	955 nM	187.5 °C
C[C@@H]1Cn2nc(COc3cccc(C#N)c3)cc2C(=O)N1Cc1ccccc1 [Example B58]	59%	468 nM	–
C[C@@H]1Cn2nc(COc3ccccn3)cc2C(=O)N1Cc1ccccc1 [Example B56]	70%	1000 nM	–
Cc1cncc(CN2CCn3nc(COc4ccccc4)cc3C2=O)n1 [Example B77]	66%	2290 nM	120.4 °C
O=C1c2cc(COc3cccc(F)c3)nn2CCN1Cc1ncccc1F [Example B104]	65%	550 nM	> 300 °C
Cn1c(CN2CCn3nc(COc4ccccc4)cc3C2=O)nc2ccccc21 [Example B98]	72%	> 10000 nM	> 300 °C
Cc1cc(CN2CCn3nc(COc4ccccc4)cc3C2=O)ncc1F [Example B82]	75.5%	355 nM	129.8 °C
COc1nccnc1CN1CCn2nc(COc3cccc(F)c3)cc2C1=O [Example B103]	63%	324 nM	154.1 °C
Cc1nc(CN2CCn3nc(COc4ccccc4)cc3C2=O)ccc1F [Example B78]	70%	295 nM	114.2 °C
Cc1cccc(CN2CCn3nc(COc4ccc(F)cc4)cc3C2=O)n1 [Example B85]	69.5%	447 nM	147.4 °C
O=C1c2cc(COc3ccccc3)nn2CCN1Cc1ccccn1 [Example B17]	69.5%	1120 nM	75.3 °C
Cc1cccc(OCc2cc3n(n2)C(C)CN(Cc2ccccc2)C3=O)c1 (single isomer, unassigned) [Example B55]	69.5%	–	–
O=C1c2cc(COc3ccccc3)nn2CCN1Cc1ccncc1 [Example B102]	68%	1780 nM	–
COc1ccc(CN2CCn3nc(COc4ccnc(C)c4)cc3C2=O)cc1 [Example B33]	30%	> 10000 nM	117.1 °C
CC(c1cccnc1)N1CCn2nc(COc3ccccc3)cc2C1=O (centres unmarked) [Example B13]	60%	1660 nM	> 300 °C (dec.)
N#Cc1cccc(OCc2cc3n(n2)CCN(Cc2ccccc2)C3=O)c1 [Example B43]	53%	380 nM	–

Continued, values first:

Emax [1]	EC50 [1]	melting point	SMILES
68%	91.2 nM	97.7 °C	COc1cccc(CN2CCn3nc(COc4ccccc4)cc3C2=O)n1 [Example B1, 5-[(6-methoxypyridin-2-yl)methyl]-2-(phenoxymethyl)-6,7-dihydropyrazolo[1,5-a]pyrazin-4(5H)-one]
75%	145 nM	164.9 °C	Cc1ccc(CN2CCn3nc(COc4ccccc4)cc3C2=O)cc1 [Example B65]
66%	85.1 nM	–	COc1ccc(F)cc1CN1CCn2nc(COc3ccccc3)cc2C1=O [Example B61]
64.5%	186 nM	–	Cc1cccc(OCc2cc3n(n2)C[C@@H](C)N(Cc2ccccc2)C3=O)c1 [Example B57]
63.5%	40.7 nM	–	COc1ccccc1CN1CCn2nc(COc3ccccc3)cc2C1=O [Example B38]
69%	49 nM	91.5 °C	O=C1c2cc(COc3ccccc3)nn2CCN1Cc1ccccc1 [Example B7, 5-benzyl-2-(phenoxymethyl)-6,7-dihydropyrazolo[1,5-a]pyrazin-4(5H)-one]
80%	275 nM	166.4 °C	C[C@@H]1Cn2nc(COc3ccccc3)cc2C(=O)N1Cc1ncccc1Cl [Example B87]
64%	204 nM	132.1 °C	COc1cc(CN2CCn3nc(COc4ccccc4)cc3C2=O)ccc1F [Example B66]
61%	47.9 nM	95.3 °C	Cc1cccc(CN2CCn3nc(COc4ccccc4)cc3C2=O)c1 [Example B64]
76%	123 nM	137.6 °C	O=C1c2cc(COc3ccccc3)nn2CCN1Cc1nccc2ccccc12 [Example B94]
71%	120 nM	113.6 °C	O=C1c2cc(COc3ccccc3)nn2CCN1Cc1cc(F)ccc1F [Example B24]
69.5%	60.3 nM	97.7 °C	CC1CN(Cc2ccccc2)C(=O)c2cc(COc3ccccc3)nn21 (single isomer, unassigned) [Example B14]
81%	229 nM	117.4 °C	N#Cc1cccc(CN2CCn3nc(COc4ccccc4)cc3C2=O)c1 [Example B72]
65%	282 nM	145.4 °C	O=C1c2cc(COc3ccccc3)nn2CCN1Cc1nc2ccccc2o1 [Example B92]
71%	93.3 nM	268.8 °C	O=C1c2cc(COc3ccc(F)cc3)nn2CCN1Cc1ncccc1Cl [Example B88]
71%	107 nM	–	COc1cccc(CN2CCn3nc(COc4ccccc4)cc3C2=O)c1F [Example B59]
59.5%	30.9 nM	–	C[C@H](c1ccccc1)N1CCn2nc(COc3ccccc3)cc2C1=O [Example B8, 2-(phenoxymethyl)-5-[(1R)-1-phenylethyl]-6,7-dihydropyrazolo[1,5-a]pyrazin-4(5H)-one]
76%	120 nM	–	O=C1c2cc(COc3ccccc3)nn2CCN1Cc1ncccc1Cl [Example B6, 5-[(3-chloropyridin-2-yl)methyl]-2-(phenoxymethyl)-6,7-dihydropyrazolo[1,5-a]pyrazin-4(5H)-one]
69.5%	93.3 nM	–	CC1CN(Cc2ccccc2)C(=O)c2cc(COc3ccc(F)cc3)nn21 (single isomer, unassigned) [Example B54]
70.5%	69.2 nM	–	CC1CN(Cc2ccccc2)C(=O)c2cc(COc3cccc(F)c3)nn21 (single isomer, unassigned) [Example B10, (7*S)-5-benzyl-2-[(3-fluorophenoxy)methyl]-7-methyl-6,7-dihydropyrazolo[1,5-a]pyrazin-4(5H)-one]
75.5%	79.4 nM	–	COc1cccc(CN2CCn3nc(COc4ccccc4)cc3C2=O)c1Cl [Example B60]
73%	93.3 nM	–	C[C@@H]1Cn2nc(COc3cccc(F)c3)cc2C(=O)N1Cc1ccccc1 [Example B49]
69%	209 nM	–	COc1ccc(CN2CCn3nc(COc4ccccc4)cc3C2=O)cc1 [Example B34]
